This note sets out measurements from patent publication US6362197B1, “Compositions and method for treatment of cough” (Cardiome Pharma Corp., priority 1998, dated 2002).

Data set [1] concerns citric acid-induced cough responses. The data set is described as follows: Citric acid aerosol-induced cough in conscious guinea-pigs, 5 min aerosol pre-treatment. Format: in vivo, guinea-pig. The conditions noted are these: for Mean latency of cough: time to onset of first cough after initiation of citric acid aerosol: 5 min pre-treatment; for Mean latency of cough: time to onset of first cough after initiation of citric acid aerosol / Total coughs: number of coughs over 15 min following initiation of 1M citric acid aerosol: mean ± SEM; for Inhibition of cough responses compared with matched vehicle pre-treated guinea pigs: Example 2, aerosol pre-treatment immediately before citric acid exposure; for Anti-tussive activity (in words): Example 2, experiment similar to Example 1. The source says:
Male albino Dunkin-Hartley strain guinea-pigs (weight 300-400 g) were supplied by Harlan UK Ltd., Bicester, Oxon, UK.
The method used was modified from that described by Adcock J. J., Schneider C. and Smith T. W., “Effects of Morphine and a Novel Opioid Pentapeptide BW443C, on Cough, Nociception and Ventilation in the Unanaesthetized Guinea-pig”, Br. J. Pharmacol., 93, 93-100 (1988). Individual conscious guinea-pigs were placed unrestrained into a sealed purpose built perspex exposure chamber (3,000 cm^3 volume) and allowed to acclimatize prior to aerosol administration.
Cylinder air was introduced into the exposure chamber at a flow rate of 1 liter/min, maintained by a needle valve and monitored by a rotameter. From the rotameter the air passed through the cup of an ultrasonic nebulizer (DeVilbis UltraNeb 2000) which was used to generate aerosols of drug or citric acid at 0.15 ml/min. A Fleisch pneumotachograph, connected to a differential pressure transducer (Grass model PT5) was attached to the outflow from the exposure chamber and provided a measurement of airflow from the chamber. The differential pressure transducer was connected to a Grass polygraph from which a hard copy record was produced. The output from the polygraph was directed to a computerized data acquisition system (Poh-Ne-Mah) for real time recording of data. A tie-clip microphone was placed in the exposure chamber and connected via a pre-amplifier to a loudspeaker output to provide the observer with an audio monitor of responses.
Cough responses were induced by exposure to an aerosol of citric acid (1M) for 10 minutes. Animals were continuously monitored by trained observer, and the number of coughs were counted during a 15 minute period from commencement of the citric acid aerosol administration.
The three types of response were differentiated primarily by sound and visual observation. […] Data recorded for individual guinea-pigs on the Poh-Ne-Mah system was stored on an optical disk. Each cough was marked on the Grass polygraph paper trace, and from these record numbers, frequency and time of onset of coughs were determined. The cough response was defined by a characteristic coughing sound and behavior, associated with a marked biphasic pressure change.
Quantities of drugs were weighed out and dissolved in a vehicle. Equal volumes were aliquotted into sample tubes before being passed, together with another sample tube containing the same volume of vehicle, to an independent observer for coding. Pre-treatments were matched by concentration together with a vehicle control group. Five guinea-pigs were randomly allocated to each treatment group. […] The sequence of pre-treatment administration was determined according to a 4×4 Latin Square design.
Data presented as the mean ±SEM number of coughs produced by individual guinea-pigs within each group during the 15 minute observation period or mean±SEM latency of cough were analyzed using one way analysis of variance to compare mean responses between matched groups of animals (doses) and between unmatched groups (treatments) followed by the Tukey-Kramer multiple comparison test where appropriate.

The test system is the same in data set [2]. The data set is described as follows: Duration of anti-tussive effect against citric acid-induced cough, pre-treatment at various times. Conditions: 10 mg/ml aerosol. Format: in vivo, guinea pig. Here is the method: Test agents or vehicle were administered as aerosol pre-treatments (10 mg/ml, 5 minute duration) at 5 minutes, 30 minutes, 1 hour, 2 hours and 4 hours prior to induction of cough responses by citric acid aerosol.

Data set [3] shares this test system. The data set is described as follows: Citric acid-induced cough responses in ozone-exposed conscious rabbits. Format: in vivo, rabbit. The conditions noted are these: rabbits exposed to ozone 3 ppm 1 hour, aerosol 10 mg/ml, citric acid 1.6 M, 10 minute count; vehicle 22.0±5.1. Here is the method:
Investigation of Antitussive Activity of Aerosolized Compound 1 on Citric Acid-induced Cough Responses in Conscious Rabbits
Twenty-two male New Zealand white rabbits were randomly allocated to either of two groups of 11 rabbits.
Pairs of rabbits (control versus test) were placed in individual exposure chambers with an airflow of 5 liter/min through the chambers.
Each rabbit was exposed to ozone (3 ppm) for 1 hour.
The rabbits were then immediately exposed to aerosols of either vehicle (chamber 1) or Compound 1 (10 mg/ml, chamber 2) at a nebulization rate of 0.9 ml/min.
Cough responses were induced with citric acid aerosol (1.6 M).
Coughs were counted during the 10 minute exposure to citric acid.

The subject of data set [4] is capsaicin aerosol-induced cough. The data set is described as follows: Capsaicin aerosol-induced cough in conscious guinea pigs, 5 min aerosol pre-treatment. Format: in vivo, guinea pig. The conditions noted are these: for Reduction of number of capsaicin-induced cough responses compared with matched vehicle: 5 minute pre-treatment; for Change of mean latency of cough onset: capsaicin-induced cough.

Data set [5] concerns citric acid-induced cough responses. The data set is described as follows: Therapeutic aerosol treatment after induction of cough by citric acid aerosol. The data set is classed as in vivo, guinea pig. The conditions noted are these: aerosol 10 mg/ml for 5 min, given 2 minutes after citric acid exposure began.
Description: Vehicle or test agents were administered as aerosols (10 mg/ml; 5 minute duration) 2 minutes after exposure to citric acid aerosol began. Cough responses were recorded during a 15 minute observation period (t=0 to t=15 min.) from initiation of citric acid exposure.

As to `C[N+](C)(CC(=O)Nc1ccccc1)CC(=O)Nc1ccccc1.[Cl-]` [Compound 1, N,N-Bis-(phenylcarbamoylmethyl)dimethylammonium chloride], the melting point lay within 177 to 178 °C. Also, in data set [1] (aerosol conc. 0.1 mg/ml), the “Percentage reduction of the cough response compared with matched vehicle control groups” value (shortened to “Percentage reduction”) is reported as “(25.3%)”, the “Mean latency of cough: time to onset of first cough after initiation of citric acid aerosol” value (“Mean latency of cough: time” below) came to 88 ± 6 s and the “Total coughs: number of coughs over 15 min following initiation of 1M citric acid aerosol” value is 22.4 ± 6.0. Also, in data set [1] (aerosol conc. 1.0 mg/ml), the “Cough frequency (in words)” value is given as “frequency of coughs was reduced”, the “Percentage reduction” value was “(40.4%)”, the “Mean latency of cough: time” value stood at 103 ± 11 s and the “Total coughs: number of coughs over 15 min following initiation of 1M citric acid aerosol” value came to 16.8 ± 4.0. In data set [1] (aerosol conc. 10 mg/ml), the “Guinea-pigs in the group with cough responses completely inhibited” value is listed as 4 of the 5, the “Latency of cough onset (in words)” value is recorded as “prolonged the latency of cough onset”, the “Percentage reduction” value is reported as “(97.6%)” and the “Sneezing in animals that did not cough” value is “marked absence of sneezing”. In data set [1] (aerosol conc. 10 mg/ml), the “Mean latency of cough: time” value was 778 ± 137^-- seconds and the “Total coughs: number of coughs over 15 min following initiation of 1M citric acid aerosol” value is 0.6 ± 0.6^--. Further, the “Inhibition of cough responses” value in data set [2] (pre-treatment 30 minutes before citric acid) amounted to 63%. Besides, in data set [2] (pre-treatment 60 minutes before citric acid), the “Inhibition of cough responses” value is 60.7%. In data set [2] (pre-treatment 2 hours before citric acid), the “Inhibition of cough responses” value stood at 44.0%. The “Reduction in mean number of citric acid-induced cough responses” value in data set [2] (pre-treatment 4 hours before citric acid) is reported as 15%. In data set [2] (pre-treatment immediately before citric acid exposure), the “Inhibition of cough responses compared with matched vehicle pre-treated guinea pigs” value is reported as 84.9%. Moreover, the “Increase of latency of cough onset” value in data set [2] (pre-treatment immediately prior to citric acid exposure) amounted to 3.3 fold. Moreover, in data set [3], the “Number of citric acid-induced cough responses, mean ± SEM” value is listed as 2.7±0.9 coughs. Further, in data set [4] (aerosol 10 mg/ml), the “Reduction of number of capsaicin-induced cough responses compared with matched vehicle” value (shortened to “Reduction of number … with matched vehicle”) was determined as 25% and the “Change of mean latency of cough onset” value was “no significant effect”. Also, in data set [4] (aerosol 30 mg/ml), the “Reduction of number … with matched vehicle” value amounted to 76.9% and the “Change of mean latency of cough onset” value stood at 2.1 fold. For the same compound, in data set [5], the “Inhibition of number of cough responses between t=2 and t=10 minutes” value came out at 70.8%. In data set [5] (t=0 to t=15 min), the “Inhibition of total number of cough responses during the 15 minute observation period compared with matched vehicle” value is reported as 63.8%.
On to `Cc1cccc(C)c1NC(=O)C[N+](C)(C)C.[Cl-]` [Compound 2, N-(2,6-dimethylphenylcarbamoylmethyl) trimethylammonium chloride], for which, in data set [1], the “Inhibition of cough responses compared with matched vehicle pre-treated guinea pigs” value is “over 80%” and the “Anti-tussive activity (in words)” value is on record as “effective”.
For `CC[N+](CC)(CC)CC(=O)Nc1c(C)cccc1C.[Cl-]` [Compound 3, N-(2,6-dimethylphenylcarbamoylmethyl) triethylammonium chloride], in that order: “over 70%” and “effective”.
Regarding `CCN(CC)CC(=O)Nc1c(C)cccc1C` [Lidocaine, lidocaine, reference compound], in data set [4] (aerosol 10 mg/ml), the “Reduction of number … with matched vehicle” value is on record as 42.2% and the “Change of mean latency of cough onset” value was determined as 1.2 fold. Further, in data set [4] (aerosol 30 mg/ml), the “Reduction of number … with matched vehicle” value is 10.3% and the “Change of mean latency of cough onset” value turned out to be 0.8 fold.
